Assay results: patent publication US20230071283A1, “COMPOSITIONS AND METHODS FOR SELECTIVE PROTEIN EXPRESSION” (Novartis AG, priority 2017, published 2023)
“Also recorded” adds a separate entry of the source.

How the values were obtained:
CD19 sCAR T cells [1] = test: In vivo depletion of CD19 sCAR T cells by AP1903 in Nalm6-injected mice
Description: FIG. 40 is a series of flow cytometry graphs depicting that the suicide activation results in pheripheral depletion of the suicide CAR T cells. Mice were injected with Nalm6 cells and after 5 days were treated with 19 s CAR T cells. CD19s CAR T cells were sorted before injection based on scFV expression. Flow plots show peripheral T cells (CD3+, CD45+) on day 8 and day 26. CD19 sCAR T cells were depleted on day 10 by injection of AP1903 (10 mg/kg).
The quantification of T cells was done from several mice. Mice were treated with AP1903 on day 10 to deplete sCAR T cells.

universal sCAR T cells = test: Depletion of universal sCAR T cells by AP1903 in BT mice (qPCR, peripheral blood); type: in vivo; settings: 4 weeks after AP1903 treatment (3 daily injections with 10 mg/kg)
Description: FIG. 44 is a schematic timeline of the experimental design of the in vivo experiment of the present invention. Using BT (bone marrow, liver, and thymus) mice for assessment of universal sCAR function in a non-oncology mouse model. Human fetal bone marrow and thymus were implanted into NSG mice on day −91. Validation of engraftment was done by flow cytometry on day −27. Universal T cells expressing CD19 sCAR T cells were injected on day 0, B cell depletion was assessed on day 10 and mice were treated with AP1903 (3 daily injections with 10 mg/kg). sCAR survival was assessed with qPCR.
A qPCR from peripheral blood WPRE copy number was performed with a gDNA, 4 weeks after AP1903 treatment.

CD19 sCAR T cells [2] = test: Elimination of CD19 sCAR T cells by AP20187 (live/dead-violet dye, flow cytometry); type: cell-based, human; settings: 16 hours at 37° C.
Description: (§1) CAR T cells were incubated in the presence of the indicated concentrations of AP20187 for 16 hours at 37° C. Dead cells were detected with live/dead-violet dye and quantified by flow cytometry. Only T cells that expressed the inducible caspase were eliminated (FMC63 iC9 or CD19 sCAR, as well as iC9 control CAR).
(§2) Elimination of CD19 CAR T cells. CD19 sCAR T cells were incubated in the presence of the indicated concentrations AP20187 for 16 hours at 37° C. Dead cells were detected with live/dead-violet dye and quantified by flow cytometry.

nontransduced T cells = test: AP20187 treatment of T cells not expressing inducible caspase-9; type: cell-based, human; settings: 16 hours at 37° C.
Description: as §1, §2

[3] = biological target: T1, ERαFD furin degron domain fused to an anti-CD19 scFv CAR (Homo sapiens, UniProt P03372, G521R/L384M/M421G/N519S/T371A/Y537S); test: CAR expression by FACS in Jurkat T cells transduced with ERαFD furin degron-anti-CD19 scFv CAR; type: cell-based; settings: 1 μM, 24 hours
T1 construct: signal peptide (CD8 leader) followed by Arg-Ser linker (N); furin cleavage site (C); anti-CD19 scFv CAR (CD8 hinge, 4-1BB, CD3zeta) (C); expressed in transfected cells; host or cells: Jurkat T cells, lentiviral transduction
T1 sequence (P03372 305-549 T371A/L384M/M421G/N519S/G521R/Y537S): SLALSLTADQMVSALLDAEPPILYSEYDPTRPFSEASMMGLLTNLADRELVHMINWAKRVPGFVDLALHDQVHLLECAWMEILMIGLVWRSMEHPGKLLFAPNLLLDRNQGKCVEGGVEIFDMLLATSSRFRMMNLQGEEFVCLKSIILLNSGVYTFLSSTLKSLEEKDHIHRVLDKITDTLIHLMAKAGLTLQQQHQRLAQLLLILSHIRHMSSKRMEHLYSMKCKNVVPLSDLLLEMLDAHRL

CD20 on-CAR = CD20 on-CAR surface expression (MFI, flow cytometry) versus Shield-1 concentration; type: cell-based
Description: FIG. 36 is series of graphs illustrating the modulation of CAR surface expression with FKBP ligand Shield-1. CD20 on-CAR T cells were stained for CAR expression and the mean fluorescence intensity (MFI, assessed by flow cytometry) of the CAR signal was plotted against the Shield-1 concentration. […] Absence of Shield-1 results in ˜60% reduction of CD20 on-CAR expression (bottom graph).

[4] = biological target: T2, FKBPFD furin degron domain fused to an anti-CD19 scFv CAR (Homo sapiens, UniProt P62942, F37V); test: CAR expression by FACS in Jurkat T cells transduced with FKBPFD furin degron-anti-CD19 scFv CAR; type: cell-based; settings: 1 μM Shield1
T2 construct: signal peptide (CD8 leader) (N); furin cleavage site (C); anti-CD19 scFv CAR (CD8 hinge, 4-1BB, CD3zeta) (C); expressed in transfected cells; host or cells: Jurkat T cells, lentiviral transduction
T2 sequence (P62942 with tags, fused parts or gaps F37V): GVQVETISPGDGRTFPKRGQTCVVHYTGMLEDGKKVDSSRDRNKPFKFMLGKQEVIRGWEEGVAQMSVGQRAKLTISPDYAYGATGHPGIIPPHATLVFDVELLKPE
Description: The scFvs used in the CAR constructs that were assessed in Examples 3 were independently synthesized based on an anti-CD19 scFv sequence described above. […] The proteins used in the furin-degron constructs that were assessed in Examples 4-5 were independently synthesized based on publicly available sequence data.
Jurkat cell lines were transduced by spinoculation with lentiviral supernatant from 293T cells transfected with pELPS using the protein-furin domain regulated plasmid DNA.
Trimethoprim (TMP) was resuspended in DMSO. In all instances where concentrations not indicated, compounds were added for 24 hours in total prior to analysis by flow cytometry.
FKBPFD transduced cells treated with 1 μM Shield1. ERαFD transduced cells treated with 1 μM Bazedoxifene. DHFRFD transduced cells treated with 1 mM TMP. […] Black=UTD; Gray=construct, no compound; White=construct, compound.

CD19rev CAR T cells = test: Titration of Shield-1 in CD19rev CAR T cells (remaining CAR+ cells, flow cytometry); type: cell-based; settings: different doses of Shield-1 for 24 h
Description: FIG. 37 is a series of flow cytometry graphs depicting the titration of Shield-1 in CD19rev CAR. CD19rev CAR T cells (˜38% transduced) were incubated in different doses of Shield-1 for 24 h to assess dose-dependent caspase-9 acitvation. The remaining CAR+ cells were quantified by flow cytometry.

[5] = test system: NALM6, a CD19+ target cell line; test: Cytokine secretion in co-culture with target cells; settings: presence or absence of bazedoxifene; 20 hours; versus parental CAR19
CD19+ NALM6 cells = test: Proliferation assay in co-culture with target cells (FACS, counting beads); settings: presence or absence of bazedoxifene; 4 days; versus parental CAR19

CC[C@H](C(=O)N1CCCC[C@H]1C(=O)O[C@H](CCc1ccc(OC)c(OC)c1)c1cccc(OCC(=O)NCCNC(=O)COc2cccc([C@@H](CCc3ccc(OC)c(OC)c3)OC(=O)[C@@H]3CCCCN3C(=O)[C@@H](CC)c3cc(OC)c(OC)c(OC)c3)c2)c1)c1cc(OC)c(OC)c(OC)c1 [AP1903]
T cells in spleen (human CD3 staining) (CD19 sCAR T cells [1]; >2 weeks after AP1903 treatment): T cells are not detectable
Peripheral T cells (CD3+, CD45+) (CD19 sCAR T cells [1]; AP1903 10 mg/kg on day 10, versus vehicle, 10 mg/kg): T cells are hardly detectable after suicide activation; also recorded: the T cell percentages drop in the AP1903 group
sCAR T cells in spleen (quantitative PCR) (CD19 sCAR T cells [1]; AP1903 versus vehicle treated mice): near-total sCAR absence in most mice
sCAR T cells in peripheral blood (qPCR, WPRE copy number) (universal sCAR T cells): can be depleted with AP1903 treatment; also recorded: near-total sCAR absence in 2/3 mice

CC[C@H](C(=O)N1CCCC[C@H]1C(=O)O[C@H](CCc1ccc(OC)c(OC)c1)c1cccc(OCC(=O)NCC(CNC(=O)COc2cccc([C@@H](CCc3ccc(OC)c(OC)c3)OC(=O)[C@@H]3CCCCN3C(=O)[C@@H](CC)c3cc(OC)c(OC)c(OC)c3)c2)CN(C)C)c1)c1cc(OC)c(OC)c(OC)c1 [AP20187]
Cell death after AP20187 (CD19 sCAR T cells [2]): specifically killed; also recorded: specific and robust elimination of CD19 sCAR T cells
Cell death after AP20187 (nontransduced T cells): no cell death

Oc1ccc2c(c1)CC[C@H](c1ccccc1)[C@@H]2c1ccc(OCCN2CCCC2)cc1 [Lasofoxifene]
CAR 19 expression [3]: can induce CAR 19 expression

CC[C@H](C(=O)N1CCCC[C@H]1C(=O)O[C@H](CCc1ccc(OC)c(OC)c1)c1cccc(OCCN2CCOCC2)c1)c1cc(OC)c(OC)c(OC)c1 [Shield1, Shield-1]
CAR expression (MFI) versus Shield-1 concentration (CD20 on-CAR; CD20 on-CAR T cells): dose-dependent increase in CAR expression
reduction of CD20 on-CAR expression (CD20 on-CAR; absence of Shield-1): ~60%
Expression of the anti-CD19 scFv [4]: inducible in the presence of compound; also recorded: inducible by the stabilizing compound
Kinetics of CAR expression following compound addition [4]: occurs rapidly following compound addition and is stable throughout the period of compound treatment
caspase-9 activation and apoptosis (proportion of CAR+ cells) (CD19rev CAR T cells): lower doses of Shield-1 result in higher caspase-9 activation and increased apoptosis

B1: construct #106: ERα furin degron (ERmut1) fused to anti-CD19 scFV CAR; furin site GTGAEDPRPSRKRRSLGDVG (SEQ ID NO: 125) (protein)
chain: RSSLALSLTADQMVSALLDAEPPILYSEYDPTRPFSEASMMGLLTNLADRELVHMINWAKRVPGFVDLALHDQVHLLECAWMEILMIGLVWRSMEHPGKLLFAPNLLLDRNQGKCVEGGVEIFDMLLATSSRFRMMNLQGEEFVCLKSIILLNSGVYTFLSSTLKSLEEKDHIHRVLDKITDTLIHLMAKAGLTLQQQHQRLAQLLLILSHIRHMSSKRMEHLYSMKCKNVVPLSDLLLEMLDAHRLGTGAEDPRPSRKRRSLGDVGEIVMTQSPATLSLSPGERATLSCRASQDISKYLNWYQQKPGQAPRLLIYHTSRLHSGIPARFSGSGSGTDYTLTISSLQPEDFAVYFCQQGNTLPYTFGQGTKLEIKGGGGSGGGGSGGGGSQVQLQESGPGLVKPSETLSLTCTVSGVSLPDYGVSWIRQPPGKGLEWIGVIWGSETTYYSSSLKSRVTISKDNSKNQVSLKLSSVTAADTAVYYCAKHYYYGGSYAMDYWGQGTLVTVSSTTTPAPRPPTPAPTIASQPLSLRPEACRPAAGGAVHTRGLDFACDIYIWAPLAGTCGVLLLSLVITLYCKRGRKKLLYIFKQPFMRPVQTTQEEDGCSCRFPEEEEGGCELRVKFSRSADAPAYKQGQNQLYNELNLGRREEYDVLDKRRGRDPEMGGKPRRKNPQEGLYNELQKDKMAEAYSEIGMKGERRRGKGHDGLYQGLSTATKDTYDALHMQALPPR
levels of IFNγ [5]: secrete IFNγ in the presence of CD19+ tumor cells, in a manner that is stabilizing compound dose-dependent and is noninferior to the parental CAR construct
Proliferation (CD19+ NALM6 cells): proliferate in the presence of CD19+ tumor cells, in a manner that is stabilizing compound-dependent and is noninferior to the parental CAR19 construct
